These results are taken from paper PMC7468908 (Nutrients, 2020).

Like-named read-outs stand apart in the source and are kept apart here. Where only a bound is given, the exact number is not on record here.

In one data set the target is T1, CYP2C19 (Homo sapiens, UniProt P33261).
T1 construct: purchased Sigma-Aldrich
The experiment in a line: CYP2C19-catalyzed S-mephenytoin hydroxylation (CypExpress kit, HPLC). The format is biochemical. The following applies: for concentration inducing statistically significant (p < 0.01) decrease in metabolite formation, CYP2C19: substrate 5 µM S-mephenytoin. On the procedure: Inhibition of CYP2C19 [47], 3A4 [48], and 2D6 [49] by Q and its conjugates was tested based on our previously reported methods, without modifications.
S-mephenytoin and 4-hydroxymephenytoin (CYP2C19 assay), testosterone and 6β-hydroxytestosterone (CYP3A4 assay), as well as dextromethorphan and dextrorphan (CYP2D6 assay) were quantified using the previously described methods, with minor modifications.
In CYP2C19 assay, the mobile phase contained acetonitrile, methanol (VWR), and sodium phosphate buffer (10 mM, pH 4.55) (17:10:73 v/v%). Samples were driven through a guard column (Phenomenex Security Guard C8, 4.0 × 3.0 mm) linked to an analytical column (Phenomenex C8 100 × 4.6 mm; 2.6 µm), with a 1 mL/min flow rate, at room temperature. After the isocratic elution, S-mephenytoin and 4-hydroxymephenytoin were detected at 230 nm.

The next data set concerns the target T2, BCRP (Homo sapiens, UniProt Q9UNQ0).
T2 construct: made in house; host or cells: Sf9 insect cells (baculovirus)
T2 sequence (Q9UNQ0 1-655): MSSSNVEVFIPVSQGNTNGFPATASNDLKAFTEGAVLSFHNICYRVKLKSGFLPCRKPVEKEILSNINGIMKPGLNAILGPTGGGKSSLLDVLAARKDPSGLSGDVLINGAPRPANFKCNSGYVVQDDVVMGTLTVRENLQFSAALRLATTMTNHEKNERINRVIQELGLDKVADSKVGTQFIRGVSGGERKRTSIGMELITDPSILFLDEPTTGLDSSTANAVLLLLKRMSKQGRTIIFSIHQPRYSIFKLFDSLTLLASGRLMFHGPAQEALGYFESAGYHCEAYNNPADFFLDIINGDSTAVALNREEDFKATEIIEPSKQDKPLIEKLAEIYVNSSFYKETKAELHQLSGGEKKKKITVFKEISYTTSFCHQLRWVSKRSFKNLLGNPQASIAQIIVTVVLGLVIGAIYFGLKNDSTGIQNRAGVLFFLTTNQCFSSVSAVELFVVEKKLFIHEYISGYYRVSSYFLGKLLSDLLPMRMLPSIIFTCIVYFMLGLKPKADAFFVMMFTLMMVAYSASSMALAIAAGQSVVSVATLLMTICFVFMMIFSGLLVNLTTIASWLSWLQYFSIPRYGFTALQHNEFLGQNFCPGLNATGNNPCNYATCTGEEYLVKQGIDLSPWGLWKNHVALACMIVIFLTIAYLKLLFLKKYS
The experiment in a line: BCRP vesicular transport of lucifer yellow in Sf9 membrane vesicles. The format is biochemical. Conditions: for concentration inducing statistically significant (p < 0.01) decrease in transport of LY by BCRP: 10 μM lucifer yellow; for IC50: vesicular uptake of 10 μM lucifer yellow. On the procedure:
Experiments were performed in insect membrane vesicles, as describe previously. Human BCRP and MRP2 were expressed in Sf9 insect cells by baculoviruses. At the third day of infection, cells were collected and membrane vesicles were obtained by mechanical disruption and differential centrifugation. To get full activity for BCRP, the cholesterol levels of the vesicles were adjusted to the level of mammalian membranes. Vesicles were stored at -80°C, total protein content of preparations was measured by the Lowry method (used as a reference of the quantity). Membrane vesicles (50 μg protein/sample) were incubated at 37 °C for 10 min (without or with 4 mM of Mg-ATP) in 50 μL volume, in the presence of transporter specific fluorescent substrates (10 μM lucifer yellow (LY) for BCRP and 5 μM 5(6)-Carboxy-2′,7′-dichlorofluorescein (CDCF) for MRP2). […] ATP dependent uptake of fluorescent substrates was examined in the presence of flavonoids (up to 50–200 μM). Each compound was dissolved in DMSO and solvent controls were applied in all experiments. […] After incubation, samples were rapidly filtered and washed on filter plate (MSFBN6B10, Millipore, Burlington, MA, USA). Accumulated substrates in vesicles were solved back from the filter by 100 μL of 10% sodium dodecyl sulfate and centrifuged into another plate. A 100-μL volume of fluorescence stabilizer was added to the samples (DMSO for LY, and 0.1 M NaOH for CDCF). Fluorescence of samples was measured by a plate reader (Victor X3 Perkin-Elmer, Waltham, MA, USA) at appropriate wavelengths (filters were λex = 405 nm and λem = 535 nm for LY as well as λex = 492 nm and λem = 635 nm for CDCF).

The mark [1] stands for this setting: S-mephenytoin hydroxylation, substrate 5 µM, read-out: IC50 for CYP2C19.

T1 sequence (P33261 whole entry): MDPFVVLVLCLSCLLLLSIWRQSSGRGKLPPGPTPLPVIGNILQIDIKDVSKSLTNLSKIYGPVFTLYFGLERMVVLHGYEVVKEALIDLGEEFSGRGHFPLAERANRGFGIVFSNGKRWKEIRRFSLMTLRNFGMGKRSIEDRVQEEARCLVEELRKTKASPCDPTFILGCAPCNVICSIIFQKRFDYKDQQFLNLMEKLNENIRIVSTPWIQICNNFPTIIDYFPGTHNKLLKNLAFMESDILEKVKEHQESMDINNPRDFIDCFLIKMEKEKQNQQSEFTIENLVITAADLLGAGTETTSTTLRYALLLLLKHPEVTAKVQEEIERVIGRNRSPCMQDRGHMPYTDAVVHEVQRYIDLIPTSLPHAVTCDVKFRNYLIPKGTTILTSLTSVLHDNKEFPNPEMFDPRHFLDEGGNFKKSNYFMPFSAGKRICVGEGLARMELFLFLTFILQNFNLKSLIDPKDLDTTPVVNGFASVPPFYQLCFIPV

As to `COc1cc(-c2oc3cc(O)cc(O)c3c(=O)c2OC2OC(C(=O)O)C(O)C(O)C2O)ccc1O` (stereo not drawn) [I3G, isorhamnetin-3-glucuronide], the half-maximal inhibitory concentration (IC50) on CYP2C19 (setting [1]) and against BCRP was over 30 µM in each case. Moreover, the “concentration inducing statistically significant (p < 0.01) decrease in metabolite formation, CYP2C19” value at CYP2C19 worked out at 20 µM. In addition, the “concentration inducing statistically significant (p < 0.01) decrease in transport of LY by BCRP” value on BCRP was 20 µM.
With `COc1cc(-c2oc3cc(O)cc(O)c3c(=O)c2O)ccc1O` [IR, isorhamnetin], at CYP2C19, the IC50 is over 30 µM and the “concentration inducing statistically significant (p < 0.01) decrease in metabolite formation, CYP2C19” value came out at 20 µM. The “concentration inducing statistically significant (p < 0.01) decrease in transport of LY by BCRP” value on BCRP came to 0.05 µM.
With `O=C(O)C1OC(Oc2c(-c3ccc(O)c(O)c3)oc3cc(O)cc(O)c3c2=O)C(O)C(O)C1O` (stereo not drawn) [Q3G, quercetin-3-glucuronide], the IC50 at CYP2C19 (setting [1]) was over 30 µM. For the same compound, the “concentration inducing statistically significant (p < 0.01) decrease in metabolite formation, CYP2C19” value at CYP2C19 came out at 20 µM. In addition, at BCRP, the “concentration inducing statistically significant (p < 0.01) decrease in transport of LY by BCRP” value amounted to 1.0 µM and inhibition was half-maximal at 13.5 µM (IC50).
For `O=c1c(O)c(-c2ccc(O)c(OS(=O)(=O)O)c2)oc2cc(O)cc(O)c12` [Q3′S, quercetin-3′-sulfate], in that order: over 30 µM, 20 µM, 0.2 µM and 3.2 µM.
As to `O=c1c(O)c(-c2ccc(O)c(O)c2)oc2cc(O)cc(O)c12` [Q, quercetin], the “concentration inducing statistically significant (p < 0.01) decrease in metabolite formation, CYP2C19” value on CYP2C19 was 10 µM. Moreover, on BCRP, the “concentration inducing statistically significant (p < 0.01) decrease in transport of LY by BCRP” value was 0.05 µM and the IC50 stood at 0.13 µM.

What is called IC50 is the point on the concentration scale where inhibition reaches its midpoint.
